From patent US20240366598A1, “GLUCOSE-DEPENDENT INSULINOTROPIC POLYPEPTIDE RECEPTOR ANTAGONISTS AND USES THEREOF” (Pfizer Inc., priority 2023, published 2024)
pIC50: −log10 of the molar value.

Molecular target: T1, human Glucose-dependent Insulinotropic Polypeptide Receptor (hGIPR) (Homo sapiens, UniProt P48546)
T1 sequence (P48546 22-466): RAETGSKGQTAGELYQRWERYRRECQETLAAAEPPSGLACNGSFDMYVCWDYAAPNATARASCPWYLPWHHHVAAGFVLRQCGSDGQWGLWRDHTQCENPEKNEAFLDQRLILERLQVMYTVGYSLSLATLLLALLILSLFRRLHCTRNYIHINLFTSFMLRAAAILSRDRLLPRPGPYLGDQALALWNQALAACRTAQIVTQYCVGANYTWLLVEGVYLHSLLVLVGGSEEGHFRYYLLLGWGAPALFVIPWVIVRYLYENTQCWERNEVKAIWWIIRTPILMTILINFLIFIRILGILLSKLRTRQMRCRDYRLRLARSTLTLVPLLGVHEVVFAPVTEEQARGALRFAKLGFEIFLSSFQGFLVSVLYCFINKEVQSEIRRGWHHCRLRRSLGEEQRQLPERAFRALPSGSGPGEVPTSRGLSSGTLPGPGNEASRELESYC
Experiment: Functional in vitro GIPR antagonist potency assay (cAMP HTRF, CHO-K1 cells stably expressing hGIPR, hGIP stimulation at about EC80)
Format: cell-based
Conditions: geometric mean, hGIP at estimated EC80, examples marked ^2: overall geometric mean of multiple forms (including salts) tested
How it was run: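 HTRF quantification of cAMP after stimulation with hGIP at an estimated EC80 for 30 min at 37 °C. Before stimulation, hGIPR-expressing CHO-K1 cells were exposed 2 h to test compound in IBMX-containing buffer, with 0.5% DMSO final. Percent effect is referenced to agonist alone (0%) and to 80 μM of a reference antagonist (100%), and runs required the agonist concentration to fall within the on-the-day EC50–EC90.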

Compound | pIC50
COc1cc(-c2ccc(NC(=O)[C@H]3CCCN3C(=O)Nc3ccc(C(F)(F)F)cc3)cc2)ccc1C(=O)O [Example 170, 3-methoxy-4′-[(1-{[4-(trifluoromethyl)phenyl]carbamoyl}-D-prolyl)amino][1,1′-biphenyl]-4-carboxylic acid] | 7.40
Cc1cc(NC(=O)N2CCC[C@@H]2C(=O)Nc2ccc(-c3ccc(C(=O)O)nc3)cc2)ccc1C1CC1 [Example 174, 5-[4-({1-[(4-cyclopropyl-3-methylphenyl)carbamoyl]-D-prolyl}amino)phenyl]pyridine-2-carboxylic acid] | 7.31
O=C(O)c1ccc(-c2ccc(NC(=O)[C@H]3CCCN3C(=O)Nc3ccc(C4(C(F)(F)F)CC4)cc3)nc2)cc1 [Example 178, 4-(6-{[1-({4-[1-(trifluoromethyl)cyclopropyl]phenyl}carbamoyl)-D-prolyl]amino}pyridin-3-yl)benzoic acid] | 7.96
O=C(O)c1cccc(-c2ccc(NC(=O)[C@H]3CCCN3C(=O)Nc3ccc(C(F)(F)F)cc3)nc2)c1 [Example 181, 3-{6-[(1-{[4-(trifluoromethyl)phenyl]carbamoyl}-D-prolyl)amino]pyridin-3-yl}benzoic acid] | 7.62
O=C(O)c1cccc(-c2ccc(NC(=O)[C@H]3CCCN3C(=O)Nc3ccc(Cl)c(C(F)(F)F)c3)nc2)c1 [Example 188, 3-{6-[(1-{[4-chloro-3-(trifluoromethyl)phenyl]carbamoyl}-D-prolyl)amino]pyridin-3-yl}benzoic acid] | 7.49
CC(C)c1ccc(CNC(=O)N2CCC[C@@H]2C(=O)Nc2ccc(-c3ccc(C(=O)O)c(F)c3)cn2)cc1 [Example 189, 2-fluoro-4-(6-{[1-({[4-(propan-2-yl)phenyl]methyl}carbamoyl)-D-prolyl]amino}pyridin-3-yl)benzoic acid] | 7.38
Cc1cc(-c2ccc(NC(=O)[C@H]3CCCN3C(=O)NCc3ccc(C(F)(F)F)c(F)c3)nc2)ccc1C(=O)O [Example 190, 4-(6-{[1-({[3-fluoro-4-(trifluoromethyl)phenyl]methyl}carbamoyl)-D-prolyl]amino}pyridin-3-yl)-2-methylbenzoic acid] | 8.00
Cc1cc(-c2ccc(NC(=O)[C@H]3CCCN3C(=O)NCc3ccc(C(C)C)cc3)nc2)ccc1C(=O)O [Example 191, 2-methyl-4-(6-{[1-{{[4-(propan-2-yl)phenyl]methyl}carbamoyl)-D-prolyl]amino}pyridin-3-yl)benzoic acid] | 7.85
Cc1cc(-c2ccc(NC(=O)[C@H]3CCCN3C(=O)NCc3ccc(C(F)(F)F)cc3)nc2)ccc1C(=O)O [Example 192, 2-methyl-4-(6-{[1-({[4-(trifluoromethyl)phenyl]methyl}carbamoyl)-D-prolyl]amino}pyridin-3-yl)benzoic acid] | 7.92
O=C(O)c1ccc(-c2ncc(NC(=O)[C@H]3CCCN3C(=O)Nc3ccc(C(F)(F)F)cc3)cc2F)cc1 [Example 193, 4-{3-fluoro-5-[(1-{[4-(trifluoromethyl)phenyl]carbamoyl}-D-prolyl)amino]pyridin-2-yl}benzoic acid] | 7.77
O=C(O)c1ccc(-c2ccc(NC(=O)[C@H]3CCCN3C(=O)NCc3ccc(C(F)(F)F)cc3)cc2)cn1 [Example 195, 5-(4-{[1-({[4-(trifluoromethyl)phenyl]methyl}carbamoyl)-D-prolyl]amino}phenyl)pyridine-2-carboxylic acid] | 7.46
O=C(O)c1ccc(-c2ccc(NC(=O)[C@H]3CCCN3C(=O)Nc3ccc(C(F)(F)F)cc3)cc2)cn1 [Example 196, 5-{4-[(1-{[4-(trifluoromethyl)phenyl]carbamoyl}-D-prolyl)amino]phenyl}pyridine-2-carboxylic acid] | 7.31
O=C(O)c1ccc(-c2ccc(NC(=O)[C@H]3CCCN3C(=O)Nc3ccc(C4(C(F)(F)F)CC4)cc3)cc2)cn1 [Example 197, 5-(4-{[1-({4-[1-(trifluoromethyl)cyclopropyl]phenyl}carbamoyl)-D-prolyl]amino}phenyl)pyridine-2-carboxylic acid] | 7.54
CC(C)c1ccc(NC(=O)N2CCC[C@@H]2C(=O)Nc2ccc(-c3ccc(C(=O)O)c(F)c3)cn2)cc1 [Example 199, 2-fluoro-4-{6-[(1-{[4-(propan-2-yl)phenyl]carbamoyl}-D-prolyl)amino]pyridin-3-yl}benzoic acid] | 7.15

Results, then the compound that gave them:

pIC50 | Compound
7.80 | Cc1cc(C(=O)O)ccc1-c1ccc(NC(=O)[C@H]2CCCN2C(=O)Nc2ccc(C(C)C)cc2)nc1 [Example 171, 3-methyl-4-{6-[(1-{[4-(propan-2-yl)phenyl]carbamoyl}-D-prolyl)amino]pyridin-3-yl}benzoic acid]
7.51 | Cc1cc(C(=O)O)ccc1-c1ccc(NC(=O)[C@H]2CCCN2C(=O)Nc2ccc(C(F)(F)F)cc2)nc1 [Example 172, 3-methyl-4-{6-[(1-{[4-(trifluoromethyl)phenyl]carbamoyl}-D-prolyl)amino]pyridin-3-yl}benzoic acid]
8.36 | Cc1cc(C(=O)O)ccc1-c1ccc(NC(=O)[C@H]2CCCN2C(=O)Nc2ccc(C(C)C)c(C)c2)nc1 [Example 173, 3-methyl-4-{6-[(1-{[3-methyl-4-(propan-2-yl)phenyl]carbamoyl}-D-prolyl)amino]pyridin-3-yl}benzoic acid]
8.08 | Cc1cc(NC(=O)N2CCC[C@@H]2C(=O)Nc2ccc(-c3cccc(C(=O)O)c3)cn2)ccc1C(F)(F)F [Example 175, 3-{6-[(1-{[3-methyl-4-(trifluoromethyl)phenyl]carbamoyl}-D-prolyl)amino]pyridin-3-yl}benzoic acid]
7.96 | Cc1cc(C(=O)O)ccc1-c1ccc(NC(=O)[C@H]2CCCN2C(=O)Nc2ccc(C(C)C)c(F)c2)nc1 [Example 176, 4-{6-[(1-{[3-fluoro-4-(propan-2-yl)phenyl]carbamoyl}-D-prolyl)amino]pyridin-3-yl}-3-methylbenzoic acid]
8.09 | Cc1cc(NC(=O)N2CCC[C@@H]2C(=O)Nc2ccc(-c3ccc(C(=O)O)cc3)cn2)ccc1C(F)(F)F [Example 177, 4-{6-[(1-{[3-methyl-4-(trifluoromethyl)phenyl]carbamoyl}-D-prolyl)amino]pyridin-3-yl}benzoic acid]
8.43 | Cc1cc(NC(=O)N2CCC[C@@H]2C(=O)Nc2ccc(-c3ccc(C(=O)O)cc3)cn2)ccc1C1CC1 [Example 179, 4-[6-({1-[(4-cyclopropyl-3-methylphenyl)carbamoyl]-D-prolyl}amino)pyridin-3-yl]benzoic acid]
7.28 | Cc1cc(NC(=O)N2CCC[C@@H]2C(=O)Nc2ccc(-c3ccc(C(=O)O)cn3)cc2)ccc1C(C)C [Example 180, 6-{4-[(1-{[3-methyl-4-(propan-2-yl)phenyl]carbamoyl}-D-prolyl)amino]phenyl}pyridine-3-carboxylic acid]
7.64 | CC(C)c1ccc(NC(=O)N2CCC[C@@H]2C(=O)Nc2ccc(-c3ccc(C(=O)O)cn3)cc2)cc1F [Example 182, 6-{4-[(1-{[3-fluoro-4-(propan-2-yl)phenyl]carbamoyl}-D-prolyl)amino]phenyl}pyridine-3-carboxylic acid]
8.03 | Cc1cc(NC(=O)N2CCC[C@@H]2C(=O)Nc2ccc(-c3cccc(C(=O)O)c3)cn2)ccc1C(C)C [Example 183, 3-{6-[(1-{[3-methyl-4-(propan-2-yl)phenyl]carbamoyl}-D-prolyl)amino]pyridin-3-yl}benzoic acid]
7.37 | Cc1cc(NC(=O)N2CCC[C@@H]2C(=O)Nc2ccc(-c3cccc(C(=O)O)c3)cn2)ncc1C(C)C [Example 184, 3-{6-[(1-{[4-methyl-5-(propan-2-yl)pyridin-2-yl]carbamoyl}-D-prolyl)amino]pyridin-3-yl}benzoic acid]
8.38 | Cc1cc(-c2ccc(NC(=O)[C@H]3CCCN3C(=O)Nc3ccc(C(C)C)c(C)c3)nc2)ccc1C(=O)O [Example 185, 2-methyl-4-{6-[(1-{[3-methyl-4-(propan-2-yl)phenyl]carbamoyl}-D-prolyl)amino]pyridin-3-yl}benzoic acid]
7.44 | Cc1cc(NC(=O)N2CCC[C@@H]2C(=O)Nc2ccc(-c3ccc(C(=O)O)c(F)c3)cn2)ccc1C(F)(F)F [Example 186, 2-fluoro-4-{6-[(1-{[3-methyl-4-(trifluoromethyl)phenyl]carbamoyl}-D-prolyl)amino]pyridin-3-yl}benzoic acid]
7.29 | Cc1cc(NC(=O)N2CCC[C@@H]2C(=O)Nc2ccc(-c3ccc(C(=O)O)c(F)c3)cn2)ccc1C(C)C [Example 187, 2-fluoro-4-{6-[(1-{[3-methyl-4-(propan-2-yl)phenyl]carbamoyl}-D-prolyl)amino]pyridin-3-yl}benzoic acid]
7.85 | CC(C)c1ccc(NC(=O)N2CCC[C@@H]2C(=O)Nc2ccc(-c3ccc(C(=O)O)cc3)nc2)cc1F [Example 194, 4-{5-[(1-{[3-fluoro-4-(propan-2-yl)phenyl]carbamoyl}-D-prolyl)amino]pyridin-2-yl}benzoic acid]
7.16 | Cc1cc(NC(=O)N2CCC[C@@H]2C(=O)Nc2ccc(-c3ccc(C(=O)O)cc3)nc2)ncc1C(C)C [Example 198, 4-{5-[(1-{[4-methyl-5-(propan-2-yl)pyridin-2-yl]carbamoyl}-D-prolyl)amino]pyridin-2-yl}benzoic acid]
